Measurements taken from the kinase profiling compilation of Christmann-Franck et al. (2016).

Assays:
Settings in all cases: compound 10.0 µM
STK32C (human) = STK32C (human) (UniProt Q86UX6)
YSK4 (human) = YSK4 (human) (UniProt Q56UN5)
[1] = tested on: KIT (human), P10721 [L576P]
RPS6KB1 (human) = RPS6KB1 (human) (UniProt P23443)
CDK13 (human) = CDK13 (human) (UniProt Q14004)
RPS6KA1 KD1 (human) = RPS6KA1 KD1 (human) (UniProt Q15418)
PIK3C2B (human) = PIK3C2B (human) (UniProt O00750)
RPS6KA4 KD1 (human) = RPS6KA4 KD1 (human) (UniProt O75676)
MAPK3 (human) = MAPK3 (human) (UniProt P27361)
CSNK1G1 (human) = CSNK1G1 (human) (UniProt Q9HCP0)
NTRK1 (human) = NTRK1 (human) (UniProt P04629)
MAPK4 (human) = MAPK4 (human) (UniProt P31152)
DDR1 (human) = DDR1 (human) (UniProt Q08345)
PI4KB (human) = PI4KB (human) (UniProt Q9UBF8)
PKMYT1 (human) = PKMYT1 (human) (UniProt Q99640)
MARK1 (human) = MARK1 (human) (UniProt Q9P0L2)
RPS6KA2 KD2 (human) = RPS6KA2 KD2 (human) (UniProt Q15349)
CHEK2 (human) = CHEK2 (human) (UniProt O96017)
[2] = tested on: KIT (human), P10721 [V559D/V654A]
MST1R (human) = MST1R (human) (UniProt Q04912)
STK38L (human) = STK38L (human) (UniProt Q9Y2H1)
CAMK1G (human) = CAMK1G (human) (UniProt Q96NX5)
TLK2 (human) = TLK2 (human) (UniProt Q86UE8)
IKBKB (human) = IKBKB (human) (UniProt O14920)
SIK3 (human) = SIK3 (human) (UniProt Q9Y2K2)
CDK4 CCND1 (human) = CDK4 CCND1 (human) (UniProt P11802+P24385)
MINK1 (human) = MINK1 (human) (UniProt Q8N4C8)
SRMS (human) = SRMS (human) (UniProt Q9H3Y6)
PAK3 (human) = PAK3 (human) (UniProt O75914)
NEK11 (human) = NEK11 (human) (UniProt Q8NG66)
DYRK1A (human) = DYRK1A (human) (UniProt Q13627)
CDKL3 (human) = CDKL3 (human) (UniProt Q8IVW4)
AXL (human) = AXL (human) (UniProt P30530)
FER (human) = FER (human) (UniProt P16591)
[3] = tested on: MET (human), P08581 [M1250T]
AKT1 (human) = AKT1 (human) (UniProt P31749)
MAP3K10 (human) = MAP3K10 (human) (UniProt Q02779)
RIPK1 (human) = RIPK1 (human) (UniProt Q13546)
CDKL2 (human) = CDKL2 (human) (UniProt Q92772)
RAF1 (human) = RAF1 (human) (UniProt P04049)
FGR (human) = FGR (human) (UniProt P09769)

FER (human), sequence (P16591 whole entry, looked up): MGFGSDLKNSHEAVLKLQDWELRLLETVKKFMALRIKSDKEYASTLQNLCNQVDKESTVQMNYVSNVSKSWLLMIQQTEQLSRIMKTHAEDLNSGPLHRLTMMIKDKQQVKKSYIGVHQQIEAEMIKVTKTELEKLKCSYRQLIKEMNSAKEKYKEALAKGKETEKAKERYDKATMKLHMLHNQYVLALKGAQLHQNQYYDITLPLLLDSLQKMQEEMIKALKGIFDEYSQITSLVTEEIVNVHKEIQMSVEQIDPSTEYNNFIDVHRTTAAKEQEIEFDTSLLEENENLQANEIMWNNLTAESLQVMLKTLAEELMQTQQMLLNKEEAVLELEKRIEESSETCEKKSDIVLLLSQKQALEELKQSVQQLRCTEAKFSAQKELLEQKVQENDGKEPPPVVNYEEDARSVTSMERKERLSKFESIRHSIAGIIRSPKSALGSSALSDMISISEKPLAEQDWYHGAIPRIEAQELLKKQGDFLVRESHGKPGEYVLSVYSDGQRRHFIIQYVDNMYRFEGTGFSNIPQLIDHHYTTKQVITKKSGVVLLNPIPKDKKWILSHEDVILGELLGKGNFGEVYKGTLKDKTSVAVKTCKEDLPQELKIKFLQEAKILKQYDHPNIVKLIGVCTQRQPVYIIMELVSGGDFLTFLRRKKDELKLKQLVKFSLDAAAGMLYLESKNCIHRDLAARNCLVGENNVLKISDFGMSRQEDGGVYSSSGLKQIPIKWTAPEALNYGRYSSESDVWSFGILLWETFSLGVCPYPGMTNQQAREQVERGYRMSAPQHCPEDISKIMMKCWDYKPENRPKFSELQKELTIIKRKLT
SRMS (human), sequence (Q9H3Y6 whole entry, looked up): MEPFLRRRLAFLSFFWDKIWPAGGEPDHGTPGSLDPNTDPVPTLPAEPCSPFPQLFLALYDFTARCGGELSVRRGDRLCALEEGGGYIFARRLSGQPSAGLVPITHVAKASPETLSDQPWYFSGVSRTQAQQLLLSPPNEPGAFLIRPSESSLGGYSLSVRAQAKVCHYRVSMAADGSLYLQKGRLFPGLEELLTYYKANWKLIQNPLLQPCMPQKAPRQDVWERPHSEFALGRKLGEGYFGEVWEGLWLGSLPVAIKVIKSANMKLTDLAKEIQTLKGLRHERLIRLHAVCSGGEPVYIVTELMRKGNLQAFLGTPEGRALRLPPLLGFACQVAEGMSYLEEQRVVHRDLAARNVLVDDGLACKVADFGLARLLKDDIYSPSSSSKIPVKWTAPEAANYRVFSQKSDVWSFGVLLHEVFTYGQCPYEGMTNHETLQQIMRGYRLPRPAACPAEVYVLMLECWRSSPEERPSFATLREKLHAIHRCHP
MST1R (human), sequence (Q04912 whole entry, looked up): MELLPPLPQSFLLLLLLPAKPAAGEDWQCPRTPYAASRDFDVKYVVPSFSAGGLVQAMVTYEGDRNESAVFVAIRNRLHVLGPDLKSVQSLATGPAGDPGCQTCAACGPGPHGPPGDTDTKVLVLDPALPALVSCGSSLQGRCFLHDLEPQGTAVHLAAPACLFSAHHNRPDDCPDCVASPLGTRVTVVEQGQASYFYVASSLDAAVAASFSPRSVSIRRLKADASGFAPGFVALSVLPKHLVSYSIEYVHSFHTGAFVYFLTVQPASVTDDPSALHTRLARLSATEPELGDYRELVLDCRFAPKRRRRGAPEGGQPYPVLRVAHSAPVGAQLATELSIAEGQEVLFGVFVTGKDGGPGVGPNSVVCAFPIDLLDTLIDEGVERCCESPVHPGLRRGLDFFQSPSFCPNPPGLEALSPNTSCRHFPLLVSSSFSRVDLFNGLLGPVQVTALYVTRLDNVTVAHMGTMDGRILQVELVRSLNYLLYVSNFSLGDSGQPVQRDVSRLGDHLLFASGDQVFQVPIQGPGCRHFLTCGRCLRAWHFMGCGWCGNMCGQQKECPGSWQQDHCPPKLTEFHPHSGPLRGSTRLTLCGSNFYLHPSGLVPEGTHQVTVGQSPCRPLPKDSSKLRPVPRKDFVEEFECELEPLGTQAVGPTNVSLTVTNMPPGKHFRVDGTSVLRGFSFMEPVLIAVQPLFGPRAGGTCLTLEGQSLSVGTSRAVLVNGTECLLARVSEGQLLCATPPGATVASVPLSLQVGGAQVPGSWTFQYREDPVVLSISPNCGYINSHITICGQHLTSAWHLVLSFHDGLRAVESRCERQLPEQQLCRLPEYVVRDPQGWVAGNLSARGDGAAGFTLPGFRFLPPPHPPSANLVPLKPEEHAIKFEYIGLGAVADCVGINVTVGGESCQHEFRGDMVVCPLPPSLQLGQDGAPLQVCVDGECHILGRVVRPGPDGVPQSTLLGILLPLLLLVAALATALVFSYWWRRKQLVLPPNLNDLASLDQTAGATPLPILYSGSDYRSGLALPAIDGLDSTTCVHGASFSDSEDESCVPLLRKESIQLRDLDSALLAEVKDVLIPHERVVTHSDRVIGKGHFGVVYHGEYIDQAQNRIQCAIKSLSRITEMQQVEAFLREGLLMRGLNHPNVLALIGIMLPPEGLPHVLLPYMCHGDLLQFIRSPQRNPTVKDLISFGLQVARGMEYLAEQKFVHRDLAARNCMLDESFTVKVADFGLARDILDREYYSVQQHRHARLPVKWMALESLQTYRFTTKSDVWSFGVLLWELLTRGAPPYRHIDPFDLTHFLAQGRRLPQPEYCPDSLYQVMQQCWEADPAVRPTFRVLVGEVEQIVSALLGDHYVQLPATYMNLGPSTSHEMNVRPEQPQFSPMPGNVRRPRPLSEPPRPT
IKBKB (human), sequence (O14920 whole entry, looked up): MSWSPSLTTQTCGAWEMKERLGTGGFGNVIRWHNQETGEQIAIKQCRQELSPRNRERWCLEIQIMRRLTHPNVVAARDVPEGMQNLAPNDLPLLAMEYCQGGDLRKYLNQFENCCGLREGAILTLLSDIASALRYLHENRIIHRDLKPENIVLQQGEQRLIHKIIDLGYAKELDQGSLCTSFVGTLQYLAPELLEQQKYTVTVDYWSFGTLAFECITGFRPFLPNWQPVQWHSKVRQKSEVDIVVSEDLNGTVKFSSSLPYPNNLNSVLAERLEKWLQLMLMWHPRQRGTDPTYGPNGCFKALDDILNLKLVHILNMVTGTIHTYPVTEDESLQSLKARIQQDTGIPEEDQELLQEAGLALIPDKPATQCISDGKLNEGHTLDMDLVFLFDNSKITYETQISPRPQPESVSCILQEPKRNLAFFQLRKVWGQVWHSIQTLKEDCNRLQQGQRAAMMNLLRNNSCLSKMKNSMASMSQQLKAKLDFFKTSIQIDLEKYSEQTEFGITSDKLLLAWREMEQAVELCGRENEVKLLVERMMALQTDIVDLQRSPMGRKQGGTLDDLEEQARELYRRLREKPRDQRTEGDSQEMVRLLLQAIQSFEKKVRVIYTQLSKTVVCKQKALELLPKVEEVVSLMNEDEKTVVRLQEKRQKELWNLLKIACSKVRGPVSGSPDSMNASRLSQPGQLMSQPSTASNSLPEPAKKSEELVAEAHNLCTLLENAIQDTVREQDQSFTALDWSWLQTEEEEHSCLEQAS
PI4KB (human), sequence (Q9UBF8 whole entry, looked up): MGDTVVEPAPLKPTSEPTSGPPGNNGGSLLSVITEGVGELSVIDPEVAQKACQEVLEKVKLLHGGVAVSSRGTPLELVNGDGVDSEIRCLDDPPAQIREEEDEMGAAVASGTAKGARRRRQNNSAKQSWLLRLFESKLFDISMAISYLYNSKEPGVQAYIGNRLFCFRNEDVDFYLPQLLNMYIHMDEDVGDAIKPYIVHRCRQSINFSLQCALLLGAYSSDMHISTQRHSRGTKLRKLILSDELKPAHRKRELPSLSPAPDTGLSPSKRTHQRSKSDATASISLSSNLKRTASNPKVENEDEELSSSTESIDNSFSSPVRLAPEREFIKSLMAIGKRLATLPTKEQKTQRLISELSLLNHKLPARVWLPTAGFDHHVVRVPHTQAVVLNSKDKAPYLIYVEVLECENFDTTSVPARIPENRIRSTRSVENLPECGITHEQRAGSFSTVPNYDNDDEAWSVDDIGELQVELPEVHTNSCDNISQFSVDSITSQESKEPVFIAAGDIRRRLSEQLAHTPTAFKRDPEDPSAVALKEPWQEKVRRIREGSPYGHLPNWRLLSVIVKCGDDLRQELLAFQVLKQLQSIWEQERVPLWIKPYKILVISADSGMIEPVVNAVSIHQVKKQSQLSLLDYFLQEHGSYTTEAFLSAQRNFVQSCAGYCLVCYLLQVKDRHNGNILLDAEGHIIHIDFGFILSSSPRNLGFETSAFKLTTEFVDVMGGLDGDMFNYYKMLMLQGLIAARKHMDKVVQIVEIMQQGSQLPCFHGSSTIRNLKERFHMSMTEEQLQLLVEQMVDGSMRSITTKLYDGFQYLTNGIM
AKT1 (human), sequence (P31749 whole entry, looked up): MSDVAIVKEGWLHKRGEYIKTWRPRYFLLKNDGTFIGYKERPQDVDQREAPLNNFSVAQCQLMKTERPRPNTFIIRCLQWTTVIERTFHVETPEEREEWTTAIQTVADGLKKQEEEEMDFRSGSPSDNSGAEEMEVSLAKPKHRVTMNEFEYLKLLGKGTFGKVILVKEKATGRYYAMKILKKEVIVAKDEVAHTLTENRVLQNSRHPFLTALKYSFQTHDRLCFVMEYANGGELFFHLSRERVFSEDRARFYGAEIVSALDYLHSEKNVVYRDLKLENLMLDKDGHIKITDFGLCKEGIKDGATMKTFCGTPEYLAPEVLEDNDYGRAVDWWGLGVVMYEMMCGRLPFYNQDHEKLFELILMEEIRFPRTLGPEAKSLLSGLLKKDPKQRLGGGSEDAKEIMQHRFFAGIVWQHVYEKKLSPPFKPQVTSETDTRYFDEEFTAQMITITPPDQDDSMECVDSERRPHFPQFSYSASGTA

## CNC(=O)c1cc(Oc2ccc(NC(=O)Nc3ccc(Cl)c(C(F)(F)F)c3)cc2)cc[n+]1[O-]
STK32C (human)
  per cent of control: 87%
YSK4 (human)
  per cent of control: 0.1%
[1]
  per cent of control: 0%
RPS6KB1 (human)
  per cent of control: 42%
CDK13 (human)
  per cent of control: 40%
RPS6KA1 KD1 (human)
  per cent of control: 91%
PIK3C2B (human)
  per cent of control: 100%
RPS6KA4 KD1 (human)
  per cent of control: 13%
MAPK3 (human)
  per cent of control: 92%
CSNK1G1 (human)
  per cent of control: 96%
NTRK1 (human)
  per cent of control: 4%
MAPK4 (human)
  per cent of control: 78%
DDR1 (human)
  per cent of control: 0.05%
PI4KB (human)
  per cent of control: 100%
PKMYT1 (human)
  per cent of control: 100%
MARK1 (human)
  per cent of control: 100%
RPS6KA2 KD2 (human)
  per cent of control: 42%
CHEK2 (human)
  per cent of control: 21%
[2]
  per cent of control: 0.45%
MST1R (human)
  per cent of control: 30%
STK38L (human)
  per cent of control: 100%
CAMK1G (human)
  per cent of control: 76%
TLK2 (human)
  per cent of control: 100%
IKBKB (human)
  per cent of control: 61%
SIK3 (human)
  per cent of control: 100%
CDK4 CCND1 (human)
  per cent of control: 74%
MINK1 (human)
  per cent of control: 2.4%
SRMS (human)
  per cent of control: 10%
PAK3 (human)
  per cent of control: 43%
NEK11 (human)
  per cent of control: 100%
DYRK1A (human)
  per cent of control: 95%
CDKL3 (human)
  per cent of control: 0.3%
AXL (human)
  per cent of control: 1.8%
FER (human)
  per cent of control: 64%
[3]
  per cent of control: 16%
AKT1 (human)
  per cent of control: 100%
MAP3K10 (human)
  per cent of control: 88%
RIPK1 (human)
  per cent of control: 87%
CDKL2 (human)
  per cent of control: 0.1%
RAF1 (human)
  per cent of control: 0.45%
FGR (human)
  per cent of control: 28%

## CNC(=O)c1cc(Oc2ccc(NC(=O)Nc3ccc(Cl)c(C(F)(F)F)c3)cc2)ccn1
STK32C (human)
  per cent of control: 72%
YSK4 (human)
  per cent of control: 0%
[1]
  per cent of control: 0%
RPS6KB1 (human)
  per cent of control: 46%
CDK13 (human)
  per cent of control: 98%
RPS6KA1 KD1 (human)
  per cent of control: 84%
PIK3C2B (human)
  per cent of control: 100%
RPS6KA4 KD1 (human)
  per cent of control: 81%
MAPK3 (human)
  per cent of control: 95%
CSNK1G1 (human)
  per cent of control: 100%
NTRK1 (human)
  per cent of control: 22%
MAPK4 (human)
  per cent of control: 79%
DDR1 (human)
  per cent of control: 0%
PI4KB (human)
  per cent of control: 100%
PKMYT1 (human)
  per cent of control: 93%
MARK1 (human)
  per cent of control: 90%
RPS6KA2 KD2 (human)
  per cent of control: 59%
CHEK2 (human)
  per cent of control: 63%
[2]
  per cent of control: 0.45%
MST1R (human)
  per cent of control: 76%
STK38L (human)
  per cent of control: 95%
CAMK1G (human)
  per cent of control: 87%
TLK2 (human)
  per cent of control: 99%
IKBKB (human)
  per cent of control: 100%
SIK3 (human)
  per cent of control: 100%
CDK4 CCND1 (human)
  per cent of control: 66%
MINK1 (human)
  per cent of control: 80%
SRMS (human)
  per cent of control: 96%
PAK3 (human)
  per cent of control: 56%
NEK11 (human)
  per cent of control: 99%
DYRK1A (human)
  per cent of control: 100%
CDKL3 (human)
  per cent of control: 0.35%
AXL (human)
  per cent of control: 5.4%
FER (human)
  per cent of control: 77%
[3]
  per cent of control: 86%
AKT1 (human)
  per cent of control: 100%
MAP3K10 (human)
  per cent of control: 85%
RIPK1 (human)
  per cent of control: 88%
CDKL2 (human)
  per cent of control: 0.05%
RAF1 (human)
  per cent of control: 0.7%
FGR (human)
  per cent of control: 41%
